US4695577A, “Anti-hypertensive agents” (University of Miami, priority 1979, dated 1987)

Experiments:
human urinary ACE = target: T1, human urinary ACE (Homo sapiens, UniProt P12821); test: ACE Activity Assay (hydrolysis of Benzoyl-GlyHisLeu); type: biochemical; settings: purified human urinary ACE, in vitro, pH 8.0, 37° C; read-out: I50
T1 construct: The enzyme preparation was ACE purified from human urine; from tissue; host or cells: human urine
Experimental: These factors include the source of enzyme, its purity, the substrate used and its concentration, and the composition of the assay buffer. All I50 data reported herein have been performed with the same assay system and same enzyme (human urinary ACE) and with an approximately 1/2Km level of substrate and are therefore internally consistent.
To initiate the assay, 40 μl of enzyme and 10 μl of water or inhibitor dissolved in water were preincubated for five minutes at 37° C. […] To terminate the reaction, 1 ml of 0.1 M HCl was added, following which 1 ml of ethyl acetate was added. The mixture was agitated on a rotary mixer and centrifuged briefly to separate the phases.
An aliquot, 500 μl, of the ethyl acetate layer was transferred to a liquid scintillation vial containing 10 ml of Riafluor, trademark New England Nuclear Corporation, Boston, Mass. For determination of I50 values, enzyme activity in the presence of inhibitor at a series of different concentrations was compared to activity in the absence of inhibitor.

[1] = tested on: Blood pressure response to angiotensin I; test: Intravenous effectiveness: blood pressure response to angiotensin I in anesthetized rats; type: in vivo, rat; settings: intravenous 2 μmol/kg
Experimental: Rats (190-290 g body weight) were fasted overnight and then anesthetized with intraperitoneal pentobarbital, 50-60 mg/kg. Tracheostomy was performed and the animals were ventilated mechanically. A cannula was inserted into a femoral vein for injection of angiotensin I, and a second cannula was inserted into a common carotid artery for direct measurement of arterial blood pressure. Heparin, 1,000 units, was injected via the femoral vein to prevent coagulation. Blood pressure was measured with a pressure transducer connected to a polygraph. The rats were injected with 400 ng/kg of angiotensin I in 20 μl of 0.9 g % NaCl; an amount of angiotensin I sufficient to raise mean arterial blood pressure by 35 mm Hg. After the responsiveness of a given rat to angiotensin I was established, the named compound at 23 μmole/kg (drug dissolved in 0.15 ml of H2 O plus 10 μl of 1 N NaHCO3 ), was given via a stomach tube. At timed intervals, the effects of 400 ng/kg of angiotensin I on mean arterial blood pressure were tested. Results are shown below:
Anesthetized rats were prepared as described in Example 35. After the responsiveness of a given rat to angiotensin I was established, the named compound, at 2 μmol/kg, in a volume of 15 μl of 0.01 N sodium bicarbonate, was injected via a femoral vein. At timed intervals, the effects of angiotensin I, 400 ng/kg, on mean arterial blood pressure were tested.

T1 sequence (P12821 30-1232 limits assumed): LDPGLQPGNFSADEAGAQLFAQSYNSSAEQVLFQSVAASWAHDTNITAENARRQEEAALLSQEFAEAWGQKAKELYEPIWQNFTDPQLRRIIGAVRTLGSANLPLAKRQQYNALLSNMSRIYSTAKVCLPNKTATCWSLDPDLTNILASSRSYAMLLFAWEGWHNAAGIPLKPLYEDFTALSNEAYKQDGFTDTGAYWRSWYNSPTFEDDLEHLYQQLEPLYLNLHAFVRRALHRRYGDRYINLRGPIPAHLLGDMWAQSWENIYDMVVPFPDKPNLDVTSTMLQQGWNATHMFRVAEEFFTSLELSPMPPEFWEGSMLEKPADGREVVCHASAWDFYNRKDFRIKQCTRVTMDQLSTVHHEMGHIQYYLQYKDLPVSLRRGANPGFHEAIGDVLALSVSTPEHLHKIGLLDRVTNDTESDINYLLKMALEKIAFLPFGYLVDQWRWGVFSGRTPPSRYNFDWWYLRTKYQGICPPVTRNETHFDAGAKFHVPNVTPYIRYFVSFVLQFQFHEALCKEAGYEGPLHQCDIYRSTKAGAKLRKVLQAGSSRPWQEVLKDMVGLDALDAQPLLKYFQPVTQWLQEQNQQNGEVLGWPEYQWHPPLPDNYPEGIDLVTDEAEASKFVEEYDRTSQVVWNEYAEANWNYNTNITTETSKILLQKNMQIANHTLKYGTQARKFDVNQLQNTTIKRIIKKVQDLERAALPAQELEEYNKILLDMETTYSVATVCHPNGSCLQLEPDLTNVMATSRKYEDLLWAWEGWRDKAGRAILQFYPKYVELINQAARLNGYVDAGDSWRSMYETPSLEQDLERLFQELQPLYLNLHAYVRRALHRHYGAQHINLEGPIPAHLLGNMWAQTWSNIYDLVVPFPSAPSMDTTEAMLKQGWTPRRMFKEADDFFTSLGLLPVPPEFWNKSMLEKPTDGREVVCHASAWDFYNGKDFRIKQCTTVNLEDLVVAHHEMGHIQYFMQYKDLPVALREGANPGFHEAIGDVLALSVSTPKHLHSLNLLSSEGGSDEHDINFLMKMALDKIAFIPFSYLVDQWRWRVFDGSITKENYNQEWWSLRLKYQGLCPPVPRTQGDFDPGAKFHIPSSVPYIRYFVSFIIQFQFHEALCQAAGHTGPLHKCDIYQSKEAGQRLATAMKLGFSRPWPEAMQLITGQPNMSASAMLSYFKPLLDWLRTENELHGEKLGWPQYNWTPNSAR

SMILES | IC50 (human urinary ACE) [nM] | Blood pressure response to 400 ng/kg angiotensin I ([1]; 3 min) | Blood pressure response to 400 ng/kg angiotensin I ([1]; 9 min) | Blood pressure response to 400 ng/kg angiotensin I ([1]; 13 min)
C[C@H](CSC(=O)[C@H](Cc1ccccc1)NC(=O)OC(C)(C)C)C(=O)N1CCC[C@H]1C(=O)O [Example 13, N^α -[3-(N^α -Tertiary-Butyloxycarbonyl-L-Phenylalanylthio)-2-D-Methylpropanoyl]-L-Proline] | 34 | 19 % of control | 19 % of control | 22 % of control
C[C@H](CSC(=O)[C@H](Cc1ccccc1)NC(=O)C1CCCC1)C(=O)N1CCC[C@H]1C(=O)O [Example 24, N^α -[3-(N^α -cyclopentylcarbonyl-L-phenylalanylthio)-2-D-methylpropanoyl]-L-proline] | 7.5 | – | – | –
